Laboratory results as given in US20070027130A1, “Tricyclic 6-alkylidene-penem beta-lactamase inhibitors and beta-lactam antibiotic combination: a broad spectrum antibiotic” (priority 2005, published 2007).
Values after ≈ are worked out from the molar mass of the structure shown.

Legend:
Test in all cases: MIC microbroth dilution
Type in all cases: cell-based
[1] = system: A. baumannii GC 7687 AmpC; details: Acinetobacter baumannii, GC7687AMPC, β-lactamase class C, MHBII, 35° C. 18 hr, read-out: Minimal Inhibitory Concentration
Method in brief: (§1)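 In vitro activity was measured by NCCLS broth microdilution in MHBII. Incubation ran at 35 C for 18-22 hours under ambient air.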

[2] = system: E. coli GC 2146 (TEM-1; SHV-7); details: Escherichia coli, β-lactamase class A, A (ESBL), MHBII, 35° C. 18 hr, read-out: Minimal Inhibitory Concentration
Method in brief: as §1

[3] = system: E. coli GC 2400 (TEM-43); details: Escherichia coli, β-lactamase class A (ESBL), MHBII, 35° C. 18 hr, read-out: Minimal Inhibitory Concentration
Method in brief: as §1

[4] = system: E. coli GC 5901 (TEM-1 and SHV-8); details: Escherichia coli, β-lactamase class A, A (ESBL), MHBII, 35° C. 18 hr, read-out: Minimal Inhibitory Concentration
Method in brief: as §1

[5] = system: E. coli GC 6368 (SHV-7); details: Escherichia coli, β-lactamase class A (ESBL), MHBII, 35° C. 18 hr, read-out: Minimal Inhibitory Concentration
Method in brief: as §1

[6] = system: K. pn GC 2006 (TEM-10 + SHV-1); details: Klebsiella pneumoniae, β-lactamase class A, A (ESBL), MHBII, 35° C. 18 hr, read-out: Minimal Inhibitory Concentration
Method in brief: as §1

[7] = system: K. pn GC 6494 (TEM-1 + SHV-5); details: Klebsiella pneumoniae, β-lactamase class A, A (ESBL), MHBII, 35° C. 18 hr, read-out: Minimal Inhibitory Concentration
Method in brief: as §1

[8] = system: P. aeruginosa PT 8503 PTZ-R; details: Pseudomonas aeruginosa, PT8503PTZR; P. aeruginosa PT 8503, piperacillin-tazobactam-resistant; MHBII, 35° C. 18 hr; read-out: Minimal Inhibitory Concentration
Method in brief: as §1

[9] = system: S. marcescens GC 4145 Inducible AmpC; details: Serratia marcescens, β-lactamase class C, MHBII, 35° C. 18 hr, read-out: Minimal Inhibitory Concentration
Method in brief: as §1

[10] = system: S. typhimurium GC 4197 CTX-M-5; details: Salmonella enterica, β-lactamase class A (ESBL), MHBII, 35° C. 18 hr, read-out: Minimal Inhibitory Concentration
Method in brief: as §1

CO/N=C(\C(=O)N[C@@H]1C(=O)N2C(C(=O)[O-])=C(C[N+]3(C)CCCC3)CS[C@H]12)c1csc(N)n1 [Cefepime]
MIC [1]: 16 µg/mL (≈ 33.3 µM)
MIC [2]: > 16 µg/mL
MIC [3]: > 16 µg/mL
MIC [4]: > 16 µg/mL
MIC [5]: 2 µg/mL (≈ 4.16 µM)
MIC [6]: > 16 µg/mL
MIC [7]: 4 µg/mL (≈ 8.32 µM)
MIC [8]: 8 µg/mL
MIC [9]: 1 µg/mL (≈ 2.08 µM)
MIC [10]: > 16 µg/mL
